Assay results: US10358449B2, “Xanthine derivative” (priority 2015, dated 2019)
Where two headings read alike, the source gives them in different places. Marks after values point to notes of the source that are not given here.

Tests used:
[1] = molecular target: humanized recombinant DPP9 (Homo sapiens (Human), UniProt Q86TI2); assay: Drug selectivity experiment in vitro, DPP9; format: biochemical
[2] = molecular target: humanized recombinant DPP-IV (Homo sapiens (Human), UniProt P27487); assay: DPP-IV activity inhibition test in vitro (DPPIV-Glo luminescence); format: biochemical
Sequence of humanized recombinant DPP-IV (P27487 whole entry): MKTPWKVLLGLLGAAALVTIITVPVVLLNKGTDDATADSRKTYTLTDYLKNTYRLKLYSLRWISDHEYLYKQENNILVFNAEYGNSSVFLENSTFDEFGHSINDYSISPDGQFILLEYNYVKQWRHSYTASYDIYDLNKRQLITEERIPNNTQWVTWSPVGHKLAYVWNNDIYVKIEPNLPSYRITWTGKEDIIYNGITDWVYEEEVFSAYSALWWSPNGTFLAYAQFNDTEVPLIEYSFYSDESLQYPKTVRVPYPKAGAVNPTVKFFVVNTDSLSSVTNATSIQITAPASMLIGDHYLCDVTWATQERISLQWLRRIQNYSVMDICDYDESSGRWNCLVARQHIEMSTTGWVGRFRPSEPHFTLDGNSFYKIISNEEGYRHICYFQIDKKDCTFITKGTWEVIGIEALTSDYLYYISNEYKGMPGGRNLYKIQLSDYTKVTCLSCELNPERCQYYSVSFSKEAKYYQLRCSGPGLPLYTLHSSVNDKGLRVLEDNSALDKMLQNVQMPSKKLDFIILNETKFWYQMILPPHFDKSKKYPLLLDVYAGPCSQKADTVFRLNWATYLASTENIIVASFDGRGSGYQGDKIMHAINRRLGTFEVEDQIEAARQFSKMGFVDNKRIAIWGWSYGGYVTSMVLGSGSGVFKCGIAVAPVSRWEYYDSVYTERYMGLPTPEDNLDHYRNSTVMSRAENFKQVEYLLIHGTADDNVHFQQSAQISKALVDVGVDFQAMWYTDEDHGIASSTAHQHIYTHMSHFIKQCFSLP
Experimental: (1) DPP-IV Activity Inhibition Tests In Vitro
DPP-IV could hydrolyze Gly-Pro-Aminoluciferin at room temperature to generate Aminoluciferin, which could produce “glow type” luminescent signals in a luciferase reaction system provided by a DPPIV-Glo™ protease test kit, and the strength of the luminescent signals was in direct proportion to the enzyme activity of DPP-IV.
2.1 humanized recombinant DPP-IV: SIGMA product, article number D3446-10UG.
2.2 DPPIV-Glo™ protease detection kit: Promega product, article number G8351.
3.2 Diluting dipeptidyl peptidase IV (Sigma) to 0.2 ng/ml solution with 10 mM Tris-HCl (pH 8.0), adding the samples to be detected in, per well 25 μl. […] Experimental Results

[3] = tested on: obese mice (B6.Cg-Lepob/JNju); assay: Glucose tolerance test of obese mice; format: in vivo, mouse; parameters: AUC0-120 min: unit not given beside the values
Experimental: 2. Experimental method: normal mice, obese mice and diabetic mice were used for studying glucose tolerance tests Experimental process of OGTT (Oral Glucose Tolerance Test): fasting for 6 hours before the test begins, 60 min after drug administration, glucose was administrated by gavage (drug concentration 0.6 mg/ml, administration volume 5 ml/kg) (2 g/kg glucose was administrated to diabetic mice; 2 g/kg glucose was administrated to obese mice; and 5 g/kg glucose was administrated to normal mice), blood glucose values at 0 min, 15 min, 30 min, 45 min, 60 min and 120 min are respectively determined after glucose administration, […]

[4] = Pharmacokinetics experiments in CD-1 mice; format: in vivo, mouse; conditions: for concentration at 0.5 h: 0.500 h; for MRT last: read-out: MRT0-last; for concentration at 0.25 h: 0.250 h; for Plasma drug concentration (ng/ml): LLOQ 3 ng/ml
Experimental: Six healthy CD-1 mice of 7-10 weeks old were randomly separated into two groups. 2 mg/kg and 5 mg/kg TSL-0319 were administrated respectively by intravenous injection and by gavage (2 mg/ml for intravenous injection, made into transparent solution with solution of DMSO/PEG400/H2O=20/60/20; 5 mg/ml for gavage; made into transparent solution with solution of PEG400 (Tween80/H2O=40/10/50); fasting for 12 hours but free drinking before administration; blood was taken from the great saphenous vein or submaxillary veins by time points (time points for taking blood of intravenous injection: 0 h, 0.0833 h, 0.250 h, 0.500 h, 1.00 h, 2.00 h, 4.00 h, 8.00 h, 12.00 h and 24.00 h; time points for taking blood of gavage: 0 h, 0.250 h, 0.50 h, 1.00 h, 2.00 h, 4.00 h, 8.00 h, 12.00 h and 24.0 h) before and after administration, lower limit of quantitation, LLOQ was set at 3 ng/ml.

[5] = molecular target: hERG potassium channel (Homo sapiens (Human), UniProt Q12809); assay: hERG toxicity, manual patch clamp in CHO cells stably transfected with hERG; format: cell-based
Sequence of hERG potassium channel (Q12809 whole entry): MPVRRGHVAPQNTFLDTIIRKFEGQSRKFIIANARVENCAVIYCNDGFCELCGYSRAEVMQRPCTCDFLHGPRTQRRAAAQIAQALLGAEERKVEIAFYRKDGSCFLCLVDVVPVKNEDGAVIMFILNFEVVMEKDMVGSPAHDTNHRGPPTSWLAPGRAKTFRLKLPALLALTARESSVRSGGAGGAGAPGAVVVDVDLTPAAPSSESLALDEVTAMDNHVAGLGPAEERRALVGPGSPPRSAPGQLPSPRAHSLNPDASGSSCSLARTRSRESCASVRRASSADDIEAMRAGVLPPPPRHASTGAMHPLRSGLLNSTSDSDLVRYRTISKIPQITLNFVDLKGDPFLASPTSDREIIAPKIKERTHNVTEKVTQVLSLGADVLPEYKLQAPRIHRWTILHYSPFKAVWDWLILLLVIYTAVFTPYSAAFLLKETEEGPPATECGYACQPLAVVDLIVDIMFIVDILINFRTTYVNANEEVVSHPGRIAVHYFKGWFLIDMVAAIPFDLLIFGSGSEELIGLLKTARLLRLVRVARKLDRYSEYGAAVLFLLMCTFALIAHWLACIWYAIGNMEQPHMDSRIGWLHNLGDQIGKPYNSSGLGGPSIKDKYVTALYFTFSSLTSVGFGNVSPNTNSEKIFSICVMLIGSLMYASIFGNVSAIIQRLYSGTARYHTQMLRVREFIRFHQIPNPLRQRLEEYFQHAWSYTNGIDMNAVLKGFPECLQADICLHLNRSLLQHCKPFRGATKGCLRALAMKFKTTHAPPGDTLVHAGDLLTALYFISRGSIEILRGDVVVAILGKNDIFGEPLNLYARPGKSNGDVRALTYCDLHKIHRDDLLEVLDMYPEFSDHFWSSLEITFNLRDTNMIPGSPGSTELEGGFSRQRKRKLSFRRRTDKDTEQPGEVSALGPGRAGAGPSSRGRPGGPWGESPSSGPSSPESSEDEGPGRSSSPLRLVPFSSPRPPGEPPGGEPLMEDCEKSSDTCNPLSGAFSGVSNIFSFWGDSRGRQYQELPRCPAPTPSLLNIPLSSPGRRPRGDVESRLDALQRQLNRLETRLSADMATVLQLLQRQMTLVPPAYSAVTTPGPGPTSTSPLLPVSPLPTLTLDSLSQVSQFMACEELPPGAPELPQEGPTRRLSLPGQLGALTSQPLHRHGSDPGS
Text: 1. Test method: testing the effect of the compounds on hERG […] in stable CHO cell lines transfected hERG […] by manual patch clamp method, and then calculating IC50 value of the compounds to hERG. Conventional Patch-Clamp was a technology that has been disclosed, was the most important technical means for studying ion channels and was universally recognized as the “gold standard” for ion channel researches and was the most accurate method for measuring ion channel. It was applicable to study the action mechanism of the effect of compound and the ion channel, and also could be used for toxicity evaluation and structure optimization of candidate drugs in the process of new drugs. In cardiomyocytes, human Ether-a-go-go Related Gene (hERG) coded potassium channel mediates a delayed rectification potassium current (IKr), IKr inhibition was the most important mechanism leading to QT interval prolongation by drugs. hERG could be inhibited by compounds of diversified structures, due to its specific molecular structure. […] The effects of compounds on hERG could be tested and relevant IC50 could be determined by conventional patch-clamp, using CHO cell lines that had been stably transfected hERG potassium channel.

[6] = molecular target: humanized recombinant DPP8 (Homo sapiens (Human), UniProt Q6V1X1); assay: Drug selectivity experiment in vitro, DPP8; format: biochemical
Sequence of humanized recombinant DPP8 (Q6V1X1 whole entry): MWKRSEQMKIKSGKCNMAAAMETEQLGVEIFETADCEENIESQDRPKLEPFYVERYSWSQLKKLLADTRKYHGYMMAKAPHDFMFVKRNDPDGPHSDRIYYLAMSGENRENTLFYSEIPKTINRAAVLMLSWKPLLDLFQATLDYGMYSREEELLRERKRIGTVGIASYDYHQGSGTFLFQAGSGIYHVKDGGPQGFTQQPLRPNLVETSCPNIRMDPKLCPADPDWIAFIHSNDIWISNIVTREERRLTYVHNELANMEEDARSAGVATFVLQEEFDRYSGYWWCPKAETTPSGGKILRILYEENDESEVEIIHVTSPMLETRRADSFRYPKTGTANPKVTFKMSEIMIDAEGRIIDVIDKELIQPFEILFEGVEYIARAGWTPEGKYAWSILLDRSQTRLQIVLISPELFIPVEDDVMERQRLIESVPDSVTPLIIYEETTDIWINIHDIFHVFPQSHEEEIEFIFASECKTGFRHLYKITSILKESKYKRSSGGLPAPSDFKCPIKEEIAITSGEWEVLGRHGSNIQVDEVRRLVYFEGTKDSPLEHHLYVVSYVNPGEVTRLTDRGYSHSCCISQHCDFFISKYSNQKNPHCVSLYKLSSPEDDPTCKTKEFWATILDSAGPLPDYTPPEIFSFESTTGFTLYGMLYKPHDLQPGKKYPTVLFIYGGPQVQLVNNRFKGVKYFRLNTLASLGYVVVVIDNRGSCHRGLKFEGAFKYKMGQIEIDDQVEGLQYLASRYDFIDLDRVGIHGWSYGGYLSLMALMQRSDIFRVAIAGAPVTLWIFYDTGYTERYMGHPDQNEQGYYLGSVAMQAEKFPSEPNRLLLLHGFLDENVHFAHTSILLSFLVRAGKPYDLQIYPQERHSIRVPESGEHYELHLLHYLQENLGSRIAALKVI

[7] = CD-1, mouse, plasma, oral, gavage 5 mg/kg, read-out: Plasma drug concentration
[8] = CD-1, mouse, plasma, po, gavage 5 mg/kg
[9] = CD-1, mouse, plasma, intravenous injection 2 mg/kg
[10] = CD-1, mouse, plasma, intravenous injection 2 mg/kg, read-out: Plasma drug concentration

Sequence of humanized recombinant DPP9 (Q86TI2 whole entry): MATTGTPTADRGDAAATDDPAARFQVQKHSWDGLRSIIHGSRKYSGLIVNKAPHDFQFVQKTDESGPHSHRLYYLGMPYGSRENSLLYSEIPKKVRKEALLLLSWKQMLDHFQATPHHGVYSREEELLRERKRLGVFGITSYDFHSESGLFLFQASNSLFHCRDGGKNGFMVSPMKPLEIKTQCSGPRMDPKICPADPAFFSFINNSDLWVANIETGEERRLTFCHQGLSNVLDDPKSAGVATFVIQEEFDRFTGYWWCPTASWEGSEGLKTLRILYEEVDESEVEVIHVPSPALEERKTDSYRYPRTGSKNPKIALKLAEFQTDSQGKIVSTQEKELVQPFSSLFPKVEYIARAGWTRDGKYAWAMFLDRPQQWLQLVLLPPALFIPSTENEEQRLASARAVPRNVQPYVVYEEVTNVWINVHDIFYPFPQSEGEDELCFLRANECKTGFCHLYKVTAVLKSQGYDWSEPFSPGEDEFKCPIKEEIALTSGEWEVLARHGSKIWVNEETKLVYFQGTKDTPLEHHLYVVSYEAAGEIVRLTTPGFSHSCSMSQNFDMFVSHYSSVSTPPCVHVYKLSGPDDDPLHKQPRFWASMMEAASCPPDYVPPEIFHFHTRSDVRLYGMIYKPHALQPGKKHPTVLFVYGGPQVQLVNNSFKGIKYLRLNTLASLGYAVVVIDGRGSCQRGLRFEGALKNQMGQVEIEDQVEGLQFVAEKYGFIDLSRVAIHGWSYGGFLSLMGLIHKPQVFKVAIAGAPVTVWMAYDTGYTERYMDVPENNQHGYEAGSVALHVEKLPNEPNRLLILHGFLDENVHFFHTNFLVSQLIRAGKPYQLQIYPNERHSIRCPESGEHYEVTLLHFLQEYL

CC#CCn1c(N2CCC[C@@H](N)C2)nc2c1c(=O)n(Cc1nccnc1C#N)c(=O)n2C [Compound I-3, 1-[(3-cyano-pyrazine-2-yl)methyl]-3-methyl-7-(2-butyne-1-yl)-8-[(R)-3-amino-piperidine-1-yl]-xanthine]
IC50 [1]: > 100 µM | Selectivity (DPP9 column) ([1]; DPP9 versus DPP4): > 1250000 | inhibition effect to DPP9 ([1]; in words): no inhibition effect | IC50 ([2]; DPP-IV, Table 1, read-out: IC50): 0.08 nM | IC50 ([2]; Table 2, read-out: DPP4 IC50): 0.08 nM | DPP-IV activity compared with linagliptin ([2]; in words): better activity than linagliptin | Blood glucose concentration 0 min ([3]; obese mice B6.Cg-Lepob/JNju, drug at -60 min (0.6 mg/ml, 5 ml/kg), 2 g/kg glucose at 0 min): 10.90 mmol/L | hypoglycemic effect ([3]; obese mice, in words): good hypoglycemic effect | Blood glucose concentration 15 min ([3]; obese mice, 15 min after glucose): 32.88 mmol/L | Blood glucose concentration 30 min ([3]; obese mice, 30 min after glucose): 25.93 mmol/L | Blood glucose concentration 45 min ([3]; obese mice, 45 min after glucose): 17.03** mmol/L | Blood glucose concentration 60 min ([3]; obese mice, 60 min after glucose): 13.88** mmol/L | Blood glucose concentration 120 min ([3]; obese mice, 120 min after glucose): 9.53* mmol/L | AUC0-120 min ([3]; obese mice, blood glucose AUC): 2025* | Cmax ([4]; CD-1, mouse, blood, oral, dosage 5 mg/kg, read-out: Cmax in mice): 200 to 500 nM | concentration at 0.5 h [4, 7]: 123 ± 30.2 ng/mL | concentration at 1 h [4, 7]: 183 ± 19.1 ng/mL | concentration at 2 h [4, 7]: 211 ± 83 ng/mL | concentration at 4 h [4, 7]: 145 ± 40.9 ng/mL | concentration at 8 h ([4]; CD-1, mouse, plasma, oral, gavage 5 mg/kg, 8.00 h, read-out: Plasma drug concentration): 8.03 ± 3.71 ng/mL | AUC(0-inf) [4, 8]: 858 ± 185 ng·h/mL | AUC(0-t) [4, 8]: 844 ± 181 ng·h/mL | Tmax [4, 8]: 1.33 ± 0.577 h | half-life [4, 8]: 1.37 ± 0.317 h | MRT inf ([4]; CD-1, mouse, plasma, po, gavage 5 mg/kg, read-out: MRT0-inf): 3 ± 0.111 h | MRT last [4, 8]: 2.87 ± 0.0589 h | AUC(0-inf) [4, 9]: 567 ± 56.1 ng·h/mL | AUC(0-t) [4, 9]: 555 ± 54.7 ng·h/mL | clearance [4, 9]: 59.1 ± 5.63 mL/min/kg | concentration at 0.25 h [4, 10]: 529 ± 93.4 ng/mL | concentration at 0.5 h [4, 10]: 344 ± 32.7 ng/mL | concentration at 1 h [4, 10]: 161 ± 21.2 ng/mL | concentration at 2 h [4, 10]: 47.5 ± 13.6 ng/mL | concentration at 4 h [4, 10]: 11.9 ± 2.24 ng/mL | MRT ([4]; CD-1, mouse, plasma, intravenous injection 2 mg/kg, read-out: MRT0-int): 0.953 ± 0.123 h | MRT last [4, 9]: 0.836 ± 0.0919 h | Vd ([4]; CD-1, mouse, plasma, intravenous injection 2 mg/kg, read-out: Vdss): 3.41 ± 0.745 L/kg | Plasma drug concentration (ng/ml) ([4]; gavage 5 mg/kg, 12.00 h): BQL | Plasma drug concentration (ng/ml) ([4]; gavage 5 mg/kg, 24.00 h): BQL | Plasma drug concentration (ng/ml) ([4]; intravenous injection 2 mg/kg, 8.00 h): BQL | Plasma drug concentration (ng/ml) ([4]; intravenous injection 2 mg/kg, 12.00 h): BQL | Plasma drug concentration (ng/ml) ([4]; intravenous injection 2 mg/kg, 24.00 h): BQL | bioavailability ([4]; mouse, plasma, oral, gavage 5 mg/kg versus intravenous 2 mg/kg, CD-1 mice): 60.5% | concentration at 0.25 h ([4]; mouse, plasma, oral, gavage 5 mg/kg, CD-1 mice, read-out: Plasma drug concentration): 48 ± 27.9 ng/mL | Cmax ([4]; mouse, plasma, po, gavage 5 mg/kg, CD-1 mice, read-out: Cmax): 223 ± 68.1 ng/mL | half-life ([4]; mouse, plasma, intravenous injection 2 mg/kg, CD-1 mice): 1.09 ± 0.623 h | concentration at 0.5 min ([4]; mouse, plasma, intravenous injection 2 mg/kg, CD-1 mice, 0.5 min, read-out: Plasma drug concentration): 759 ± 133 ng/mL | inhibition rate to hERG ([5]; 1 μM concentration): 0% | IC50 ([5]; manual patch clamp, CHO cells): 79.8 µM | IC50 [6]: > 100 µM | Selectivity (DPP8 column) ([6]; DPP8 versus DPP4): > 1250000 | inhibition effect to DPP8 ([6]; in words): no inhibition effect
